In patent publication US20110230430A1, “SAPONIN EXTRACT FROM SAPONARIA SPP. AND USES THEREOF” (NATIONAL RESEARCH COUNCIL OF CANADA, priority 2008, published 2011):

Assays:
Assay type in all cases: cell-based, human
[1] = system: CRL-2522 cells; assay: Vybrant Apoptosis Assay Kit #2 in CRL-2522 cells
Text: Another apoptotic assay is the Annexin-V detection of extracellular phosphatidlyserine (PS). Normally, phosphatidylserine is localized on the inner membrane of the plasmalemma. However, during the early stages of apoptosis, externalization of PS takes place. Annexin-V is a calcium binding protein which binds to PS and can be observed with annexin-V-FITC staining by flow cytometry (Martin, et al., 1995). Alexa Fluor® 488-labeled Annexin V, which has a high affinity for PS, is used to detect apoptotic cells by binding to PS on the outer surface of the cell. Propidium iodide staining is used concurrently to detect dead cells. When cells are analyzed by flow cytometry apoptotic cells show Annexin V staining, late apoptotic cells show PI and Annexin V staining, and dead cells show only PI staining. The Vybrant® Apoptosis Assay Kit #2 (Molecular Probes™) used herein in the Examples is an assay that measures Annexin-V positive cells.
(§1) CRL-2522 cells, acquired from ATCC, (American Type Culture Collection) are normal fibroblast cells that originated from human foreskin. CRL-2522 cells were maintained in RPMI 1640 medium (Gibco) supplemented with 10% fetal bovine serum (Cansera), 100 U/mL penicillin, 100 μg/mL streptomycin and 0.25 μg/mL amphotericin B. Cultures were maintained in medium at 37° C. with 5% CO2 and 100% relative humidity.
(§2) CRL-2522 cells were treated with PC1448 and assayed for apoptosis as described above for PC-3 cells.

[2] = system: CRL-2522 cells; assay: APO LOGIX Carboxyfluorescein Caspase 9 Detection Kit in CRL-2522 cells
Text: In a still further apoptotic assay, apoptosis can be measured by the APO LOGIX™ Carboxyfluorescein Caspase 9 Detection Kit. The APO LOGIX™ Carboxyfluorescein Caspase 9 Detection Kit uses a cell permeable carboxyfluorescein labeled caspase inhibitor, which binds covalently to active caspases 9. Caspase 9 is involved in initiating apoptosis through the mitochondrial pathway (Budihardjo I., et al. 1999). Cells that contain bound inhibitor are detected by an increase in fluorescence when samples are analyzed by flow cytometry.
as §1, §2

[3] = system: CRL-2522 (normal fibroblast) cells; assay: Hoechst 33342 staining of CRL-2522 cells; settings: 7 μM PC1448, 24 hours
Text: Apoptosis can also be measured by Hoechst 33342 Staining. Cells undergoing apoptosis show several characteristic morphological changes. These changes include cell shrinkage and rounding, and the formation of cytoplasmic blebs on the cell surface. Nuclear material condenses along the edge of the nucleus followed by complete condensation and nuclear fragmentation (Hacker, G., 2000). Apoptotic cells eventually break up into membrane bound vesicles, which are known as apoptotic bodies. Hoechst 33342 is a fluorescent DNA-binding dye that allows visualization of chromatin distribution within a cell. Apoptotic nuclei have highly condensed chromatin, often in crescent shapes around the periphery of the nucleus.
A further indication of apoptotic activity, in addition to the assays described above, can be derived from observations of changes in cell architecture evident after induction of apoptosis. Hoechst 33342 is a fluorescent DNA-binding dye that allows visualization of chromatin distribution within a cell.
Cells undergoing apoptosis show several characteristic morphological changes. These changes include cell shrinkage and rounding, and the formation of cytoplasmic blebs on the cell surface. Nuclear material condenses along the edge of the nucleus followed by complete condensation and nuclear fragmentation (Hacker, G., 2000). […]

[4] = system: MCF-7 cells; assay: Dual Sensor: MitoCasp Assay in MCF-7 breast cancer cells; settings: 5 and 10 μM, 24 hours
Text: Techniques to assay enzymatic and signaling processes involved in apoptosis have been developed as standard protocols. One example of an early step in apoptosis, is the release of cytochrome C from mitochondria and the activation of caspase-3. Induction of the caspases (a series of cytosolic proteases) is one of the most consistently observed features of apoptosis. Caspases are a family of proteolytic enzymes that transmit the apoptotic signal using a proteolytic cascade. […] Caspases 3 and 7 are effector caspases, central to the caspase cascade pathways. In particular, caspase-3 plays a central role in the process. […] Collapse of the mitochondrial membrane potential during apoptosis prevents the dye from accumulating in the mitochondria resulting in a decrease in fluorescent intensity that can be detected with flow cytometry. […] In this assay, caspase 3/7 activity is detected using a cell permeable carboxyfluorescein labeled caspase inhibitor, which binds covalently to active caspases 3 and 7. Cells that contain bound inhibitor are detected by an increase in fluorescence when samples are analyzed by flow cytometry. […]
MCF-7 cells were treated with 5.0 μM and 10 μM of saponins PC1526, PC1464 and PC1422 for 24 hours and assessed using Dual Sensor: MitoCasp™ Assay.

Row | Substance | Change in number of cells showing Annexin V staining (in words) ([1]; 14 μM PC1448, 10-40 hr) | Annexin-V positive cells ([1]; 14 μM PC1448, 10 hr) [%] | Annexin-V positive cells ([1]; 14 μM PC1448, 20 hr) [%] | Annexin-V positive cells ([1]; 14 μM PC1448, 40 hr) [%] | Change in Caspase 9 positive cells (in words) ([2]; 14 μM PC1448, 10 to 48 hr) | Caspase 9 positive cells ([2]; 14 μM PC1448, 10 hr) [%] | Caspase 9 positive cells ([2]; 14 μM PC1448, 24 hr) [%] | Caspase 9 positive cells ([2]; 14 μM PC1448, 48 hr) [%] | Nuclear morphology after Hoechst 33342 staining (in words, FIG. 4) [3] | Effect on Annexin V positive cells (in words) ([1]; 7 μM PC1464, 10-30 hr) | Annexin-V positive cells ([1]; 7 μM PC1464, 10 hr) [%] | Annexin-V positive cells ([1]; 7 μM PC1464, 20 hr) [%] | Annexin-V positive cells ([1]; 7 μM PC1464, 30 hr) [%] | Induction of apoptosis (in words, FIG. 16) [4]
1 | Segetoside H [PC1448] | No meaningful changes | 17.2 | 9.3 | 18.2 | No increase in Caspase 9 positive cells | 15.9 | 10.6 | 9.5 | nuclear changes characteristic of apoptotic cells |  |  |  |  | 
2 | Segetoside I [PC1464] |  |  |  |  |  |  |  |  |  | little effect | 6.0 | 8.4 | 10.2 | do not induce apoptosis
